# Data as given in patent publication US20140221361A1, “C-19 MODIFIED TRITERPENOIDS WITH HIV MATURATION INHIBITORY ACTIVITY” (priority 2013, published 2014).
# System: recombinant NL4-3 virus (Renilla luciferase in nef, Gag P373S)
# Assay: HIV cell culture assay (luciferase reporter, MT-2 cells)
# Type: cell-based, HIV-1
# Conditions: Renilla, NL43, MT-2 cells infected for 4-5 days with NLRluc recombinants; luciferase activity; serial dilutions of inhibitor
# Method: MT-2 cells and 293T cells were obtained from the NIH AIDS Research and Reference Reagent Program. MT-2 cells were propagated in RPMI 1640 media supplemented with 10% heat inactivated fetal bovine serum, […]. The 293T cells were propagated in DMEM media supplemented with 10% heat inactivated fetal bovine serum (FBS), 100 units/ml penicillin G and 100 µg/ml streptomycin. The proviral DNA clone of NL4-3 was obtained from the NIH AIDS Research and Reference Reagent Program. A recombinant NL4-3 virus, in which a section of the nef gene from NL4-3 was replaced with the Renilla luciferase gene, was used as a reference virus. In addition, residue Gag P373 was converted to P373S. Briefly, the recombinant virus was prepared by transfection of the altered proviral clone of NL4-3. Transfections were performed in 293T cells using LipofectAMINE PLUS from Invitrogen (Carlsbad, Calif.), according to manufacturer's instruction. The virus was titered in MT-2 cells using luciferase enzyme activity as a marker. Luciferase was quantitated using the Dual Luciferase kit from Promega (Madison, Wis.), with modifications to the manufacturer's protocol. The diluted Passive Lysis solution was pre-mixed with the re-suspended Luciferase Assay Reagent and the re-suspended Stop & Glo Substrate (2:1:1 ratio). Fifty (50) μL of the mixture was added to each aspirated well on assay plates and luciferase activity was measured immediately on a Wallac TriLux (Perkin-Elmer). Antiviral activities of inhibitors toward the recombinant virus were quantified by measuring luciferase activity in cells infected for 4-5 days with NLRluc recombinants in the presence serial dilutions of the inhibitor.
row,SMILES,EC50 [nM]
1,"CC(=O)N[C@@H]1CC[C@]2(NCCN3CCS(=O)(=O)CC3)CC[C@]3(C)[C@H](CC[C@@H]4[C@@]5(C)CC=C(c6ccc(C(=O)O)cc6)C(C)(C)[C@@H]5CC[C@]43C)[C@@H]12 [Example B36, 4-((1R,3aR,5aR,5bR,7aR,11aS,11bR,13aR,13bS)-1-acetamido-3a-((2-(1,1-dioxidothiomorpholino)ethyl)amino)-5a,5b,8,8,11a-pentamethyl-2,3,3a,4,5,5a,5b,6,7,7a,8,11,11a,11b,12,13,13a,13b-octadecahydro-1H-cyclopenta[a]chrysen-9-yl)benzoic acid]",6.29
2,"CNC(=O)[C@@H]1CC[C@]2(NCCN3CCS(=O)(=O)CC3)CC[C@]3(C)[C@H](CC[C@@H]4[C@@]5(C)CC=C(c6ccc(C(=O)O)cc6)C(C)(C)[C@@H]5CC[C@]43C)[C@@H]12 [Example B28, 4-((1R,3aS,5aR,5bR,7aR,11aS,11bR,13aR,13bS)-3a-((2-(1,1-dioxidothiomorpholino)ethyl)amino)-5a,5b,8,8,11a-pentamethyl-1-(methylcarbamoyl)-2,3,3a,4,5,5a,5b,6,7,7a,8,11,11a,11b,12,13,13a,13b-octadecahydro-1H-cyclopenta[a]chrysen-9-yl)benzoic acid]",110
3,"CC1(C)C(c2ccc(C(=O)O)cc2)=CC[C@]2(C)[C@H]3CC[C@@H]4[C@H]5[C@H](C(=O)N6CCOCC6)CC[C@]5(NCCN5CCS(=O)(=O)CC5)CC[C@@]4(C)[C@]3(C)CC[C@@H]12 [Example B27, 4-((1R,3aS,5aR,5bR,7aR,11aS,11bR,13aR,13bS)-3a-((2-(1,1-dioxidothiomorpholino)ethyl)amino)-5a,5b,8,8,11a-pentamethyl-1-(morpholine-4-carbonyl)-2,3,3a,4,5,5a,5b,6,7,7a,8,11,11a,11b,12,13,13a,13b-octadecahydro-1H-cyclopenta[a]chrysen-9-yl)benzoic acid]",8.11
4,"CC(=O)NC(C)[C@@H]1CC[C@]2(NCCN3CCS(=O)(=O)CC3)CC[C@]3(C)[C@H](CC[C@@H]4[C@@]5(C)CC=C(c6ccc(C(=O)O)cc6)C(C)(C)[C@@H]5CC[C@]43C)[C@@H]12 (stereo partly drawn) [Example B21, 4-((1R,3aS,5aR,5bR,7aR,11aS,11bR,13aR,13bS)-1-(1-acetamidoethyl)-3a-((2-(1,1-dioxidothiomorpholino)ethyl)amino)-5a,5b,8,8,11a-pentamethyl-2,3,3a,4,5,5a,5b,6,7,7a,8,11,11a,11b,12,13,13a,13b-octadecahydro-1H-cyclopenta[a]chrysen-9-yl)benzoic acid]",8.18
5,"CC(C)(O)[C@@H]1CC[C@]2(NCCN3CCS(=O)(=O)CC3)CC[C@]3(C)[C@H](CC[C@@H]4[C@@]5(C)CC=C(c6ccc(C(=O)O)cc6)C(C)(C)[C@@H]5CC[C@]43C)[C@@H]12 [Example B3, 4-((1R,3aS,5aR,5bR,7aR,11aS,11bR,13aR,13bS)-3a-((2-(1,1-dioxidothiomorpholino)ethyl)amino)-1-(2-hydroxypropan-2-yl)-5a,5b,8,8,11a-pentamethyl-2,3,3a,4,5,5a,5b,6,7,7a,8,11,11a,11b,12,13,13a,13b-octadecahydro-1H-cyclopenta[a]chrysen-9-yl)benzoic acid]",1.3
6,C=C(CO)[C@@H]1CC[C@]2(N)CC[C@]3(C)[C@H](CC[C@@H]4[C@@]5(C)CC=C(c6ccc(C(=O)O)c(F)c6)C(C)(C)[C@@H]5CC[C@]43C)[C@@H]12 [Example A2],10
7,"CN[C@@H]1CC[C@]2(NCCN3CCS(=O)(=O)CC3)CC[C@]3(C)[C@H](CC[C@@H]4[C@@]5(C)CC=C(c6ccc(C(=O)O)cc6)C(C)(C)[C@@H]5CC[C@]43C)[C@@H]12 [Example B37, 4-((1R,3aR,5aR,5bR,7aR,11aS,11bR,13aR,13bS)-3a-((2-(1,1-dioxidothiomorpholino)ethyl)amino)-5a,5b,8,8,11a-pentamethyl-1-(methylamino)-2,3,3a,4,5,5a,5b,6,7,7a,8,11,11a,11b,12,13,13a,13b-octadecahydro-1H-cyclopenta[a]chrysen-9-yl)benzoic acid]",40
